# Experimental data reported in PMC8782015, “Coumarin Derivatives Exert Anti-Lung Cancer Activity by Inhibition of Epithelial–Mesenchymal Transition and Migration in A549 Cells” (Pharmaceuticals, 2022).
# Assays:
# [1] = system: A549 cells; experiment: MTT cell viability assay on A549 cells; format: cell-based, human; conditions: 24 h; for cytotoxicity (A549 cells viability, in words): single concentration 12 µM
# Procedure: All the synthetic coumarins (7, 8a–f, 9a–g, 10, 11, 12a–c, 13a–c, 14–17) were first screened for their in vitro cytotoxic activity at a single concentration (12 µM) against NSCLC cell line (human lung adenocarcinoma A549) for 24 h, using the well-established 3-(4,5-dimethylthiazol-2-yl)-2,5-diphenyltetrazolium bromide (MTT) assay.
# The effect of coumarin derivatives on cell viability was evaluated by the MTT assay at a single dose according to the NCI testing protocol or at different concentrations for IC50 determination. Coumarin derivatives were dissolved in dimethyl sulfoxide (DMSO) and then diluted with DMEM. Briefly, cells were plated in 96-well plates (2 × 10^4/well) and each coumarin derivative at 12 µM was added to the culture medium, and the cell cultures were continued for 24 h. Cisplatin (2.6 µM) was used as a reference drug. Thereafter, the medium was replaced with fresh DMEM containing 5 mg/mL MTT. Following an incubation period (4 h) in a humidified CO2 incubator at 37 °C and 5% CO2, the supernatant was removed, and dimethyl sulfoxide solution (DMSO, […]) was added to each cultured plate. After incubation at room temperature for 15 min, the absorbance of the solubilized MTT formazan product was spectrophotometrically measured at 540 nm. Three individual wells were assayed for each treatment, and the percentage viability relative to the control sample was determined as (absorbance of treated cells/absorbance of untreated cells) × 100%. Only the compound that reduced the viability by more than half the value of the control cells were screened in a range of concentration (10^−8 to 10^−3 M) with the A549, H2170, and NHI-3T3 cell lines. The concentration of 9f compound that reduced the viable cell number by 50% (CC50) was determined using a non-linear regression approach, and the mean value of CC50 for each cell type was calculated from triplicate.
# Figure 1 Effect of synthetic coumarin derivatives on cell viability. The viability of A549 cells was determined using the MTT assay after exposure at a single concentration (12 µM) of the compounds or cisplatin (2.6 µM) for 24 h. The percentage of inhibition was calculated considering the cells treated with medium (DMEM), which was considered as 100% of cell viability (dotted line). Bars represent the mean ± S.D. from three independent experiments.
# 1.1. In vitro cytotoxicity assay of 9f compound on A549, H2170 and NIH3T3 cells
# In order to determine the cytotoxic effect of 9f compound, the tumor cell lines A549 and H2170, and non-tumor cell line NHI-3T3 (1×10^5 per well) were seeded in the presence of the 9f compound concentration (1×10-3 to 1×10^-8 M) in 96-well microliter culture plate in a humidified CO2 (5%) incubator at 37 °C for 24h. Cell viabilities were measured using MTT assay as described in Materials and Methods Section. Three individual wells were assayed for each treatment and the percentage viability relative to the control sample was determined as (absorbance of treated cells/absorbance of untreated cells)×100%. A nonlinear regression analysis calculated using Prism 7.0 software (Graph- […]
# 25.8 ± 1.7 µM to NHI-3T3 cells (Figure S1).
# Figure S1. Cytotoxicity assay (CC50) of increasing concentration of 9f compound on tumor cell lines (A549 and H2170) and non-tumor cell line (NHI-3T3) after 24 hours using MTT assay. All data were reported as the mean ± S.D. CC50 (M) values were calculated from the dose response curve using Prim 7 software.
# (1 picture or pasted object on this page, not shown here)
# [2] = system: A549 cells; conditions: cited from earlier work
# [3] = system: IL-1β-stimulated A549 cells; experiment: IL-1β-induced EMT: cell morphology and F-actin (FITC-phalloidin) staining; format: cell-based, human; conditions: 7 µM, 1 ng/mL IL-1β, 24 h
# Procedure: (§1) For induction of the EMT process, A549 cells (1 × 10^5 per well) were seeded in 24-well culture plates and treated with 1 ng/mL IL-1β (Peprotech, Rocky Hill, NJ, USA) for 24 h. In the unstimulated cells, DMEM medium was added. Then, the morphological alteration of cells was observed under a microscope. This protocol for EMT induction is as reported in the previous literature. To evaluate the effects of coumarin derivative with respect to EMT induced by IL-1β, cells were pretreated with compound 9f at 7 µM, being this treatment also maintained during stimulation with IL-1β for 24 h.
# After 24 h, cells were fixed for 15 min at 4 °C with 4% paraformaldehyde in PBS. […] Cell morphology was determined using an inverted epifluorescence microscope (Nikon Eclipse 50i). Fluorescence quantification was done using ImageJ 1.47 software (NIH, Bethesda, MD, USA). Images were analyzed through the “Measure” menu, which allowed analyzing the fluorescence intensity signal per cell from original photomicrographs.
# Figure 2 Compound 9f inhibited IL-1β-induced EMT in vitro. […] Cells were photographed using phase-contrast microscopy (A–D) or fluorescence microscopy (E–H). […] Actin (green) was detected via immunofluorescence in formaldehyde-fixed cells with FITC-conjugated phalloidin (1:100). […] Magnification ×100 (insert, magnification ×200) for phase-contrast microscope and ×400 for fluorescence microscope.
# [4] = system: vimentin in A549 cells; experiment: Vimentin expression by immunofluorescence and flow cytometry; format: cell-based, human; conditions: 7 µM, 24 h
# Procedure: as §1
# In another set of experiments, the analysis for vimentin, a well-recognized marker for its selective expression and specific role in the mesenchymal state, was performed. […] Stained cells were analyzed by a flow cytometer (FACSCanto II, Becton Dickinson, San Jose, CA, USA) accompanied with the BD FACSDIVA™ software for data analysis. The cell-associated fluorescence of 5000 cells per sample was measured as mean fluorescence intensity (MFI) in the FL1 channel. The MFI values were corrected for unspecific staining by subtracting the fluorescence of cells unstained (negative control).
# Figure 3 Compound 9f downregulates the expression of mesenchymal cell marker vimentin in IL-1β-induced EMT. […] The mesenchymal markers vimentin was detected by immunofluorescence. […] Magnification ×400 for fluorescence microscope. […]
# [5] = system: A549 cells; experiment: In vitro scratch wound healing assay; format: cell-based, human; conditions: 7 µM, 24 h, IL-1β-stimulated A549 cells
# Procedure: To evaluate the effect of 9f on epithelial motility, we performed the scratch assay as described by Cardoso et al.. Cells were maintained in 24-well plates until they reached 90% confluency. Thereafter, a vertical stripe on the cell monolayer was made using a sterile pipette (200 μL) tip. The wells were washed with PBS to remove dead cells and debris, and then, 9f was added at a concentration of 7 µM. As a control, the cells were treated with cell culture medium. Photographs were captured by a digital camera connected to an inverted microscope (Olympus IX70) at 0 and 24 h after scratch. The migration gap area of the cells was measured by ImageJ software (https://imagej.nih.gov/ij/; accessed on 24 November 2020, Center for Information Technology, National Institute of Health, Bethesda, […], USA). Each measurement was repeated three times.
# Figure 4 The effect of 9f on the migration of A549 cells assayed by the wound-healing assay. Cells were treated with 9f at 7 µM, and images were captured to calculate the scratch closure. In (A), representative photomicrography images showing the cell migration toward the cell-free area after treatment with DMEM (control) or 9f and after 24 h. […] Values represent mean ± S.D. from three independent experiments. (+++) p < 0.001 compared with respective DMEM-treated cells and (***) p < 0.001 compared with IL-1β-stimulated cell vehicle-treated cells.
# [6] = system: H2170 cells; experiment: MTT cell viability assay (CC50) on H2170 cells; format: cell-based; conditions: Homo sapiens, NCI-H2170, 24 h, mean ± S.D., read-out: CC50 (concentration that reduces the viable cell number by 50%)
# Description: (§2) Among these two compounds, 9f was the most promising, reducing the A549 cells viability to less than 20%. […] Distinct explanations might be used to sustain this fact, including biochemical and metabolic changes between cell lines. While normal cells follow a set of organized metabolic programs, cancer cells show intrinsic or acquired resistance to apoptosis and also a metabolic reprogramming in order to meet the increased energy demands.
# (§3) The effect of coumarin derivatives on cell viability was evaluated by the MTT assay at a single dose according to the NCI testing protocol or at different concentrations for IC50 determination. […] After incubation at room temperature for 15 min, the absorbance of the solubilized MTT formazan product was spectrophotometrically measured at 540 nm. Three individual wells were assayed for each treatment, and the percentage viability relative to the control sample was determined as (absorbance of treated cells/absorbance of untreated cells) × 100%. […]
# In order to determine the cytotoxic effect of 9f compound, the tumor cell lines A549 and H2170, and non-tumor cell line NHI-3T3 (1×10^5 per well) were seeded in the presence of the 9f compound concentration (1×10-3 to 1×10^-8 M) in 96-well microliter culture plate in a humidified CO2 (5%) incubator at 37 °C for 24h. Cell viabilities were measured using MTT assay as described in Materials and Methods Section. […]
# [7] = MTT cell viability assay (CC50) on NIH-3T3 cells; format: cell-based; conditions: mouse, NIH-3T3 fibroblast cells (non-tumour), NIH-3T3 non-cancer cells, mean ± S.D., read-out: CC50 (concentration that reduces the viable cell number by 50%)
# Description: as §2
# A549, H2170, and normal mouse fibroblast (NIH-3T3) cell lines were obtained from the Rio de Janeiro Cell Bank (BCRJ). […]
# as §3
# Figure S1. […] All data were reported as the mean ± S.D. CC50 (M) values were calculated from the dose response curve using Prim 7 software. […]
compound,measurement,setting,value
O=c1ccc2ccc(Cc3ccccc3)cc2o1 [Compound 15],"cytotoxicity (A549 cells viability, in words)",[1],little or no cytotoxicity
O=c1ccc2cc(C#CCCCc3ccccc3)ccc2o1 [Compound 13b],"cytotoxicity (A549 cells viability, in words)",[1],little or no cytotoxicity
O=c1ccc2cc(Cc3ccccc3)ccc2o1 [Compound 14],"cytotoxicity (A549 cells viability, in words)",[1],little or no cytotoxicity
O=c1ccc2ccc(C#CCO)cc2o1 [Compound 12c],"cytotoxicity (A549 cells viability, in words)",[1],little or no cytotoxicity
COc1ccccc1-c1ccc2ccc(=O)oc2c1 [Compound 8b],"cytotoxicity (A549 cells viability, in words)",[1],little or no cytotoxicity
COc1ccccc1-c1ccc2oc(=O)ccc2c1 [Compound 9c],"cytotoxicity (A549 cells viability, in words)",[1],little or no cytotoxicity
O=c1ccc2ccc(CCc3ccccc3)cc2o1 [Compound 16],"cytotoxicity (A549 cells viability, in words)",[1],little or no cytotoxicity
CC(C)=CCC/C(C)=C/CC/C(C)=C/COc1ccc2ccc(=O)oc2c1 [umbelliprenin],IC50,[2],52 ± 1.97 µM
O=c1ccc2cc(-c3ccc(Cl)c(Cl)c3)ccc2o1 [Compound 9f],actin cytoskeleton reorganization,[3]; FITC-labeled phalloidin,attenuated the changes in the actin cytoskeleton reorganization
same,morphological changes (mesenchymal characteristics) induced by IL-1β,[3]; phase-contrast microscopy,impairment in changes in its mesenchymal characteristics induced by IL-1β
same,expression of mesenchymal marker vimentin,[4]; IL-1β-stimulated (1 ng/mL) A549 cells,significantly diminished
same,levels of vimentin expression,[4]; cells unstimulated with IL-1β,did not change
same,migration (wound closure),[5],significantly reduced
same,CC50,[6],3.3 ± 0.5 µM
same,CC50 at 24 h,[7],25.8 µM
same,CC50,"[1]; Homo sapiens, A549 cells, mean ± S.D., read-out: CC50 (concentration that reduces the viable cell number by 50%)",7.1 ± 0.8 µM
CC(=O)Oc1ccc2cc(-c3ccc(S(C)(=O)=O)cc3)c(=O)oc2c1OC(C)=O [8-(acetyloxy)-3-(4-methanesulfonylphenyl)-2-oxo-2H-chromen-7-yl acetate],IC50,[2],24.2 µM
